row,melting point [°C],Compound
1,201 to 202,CCOC(=O)CCC(=O)C1=C(O)C(=O)N(c2nc3ccc(F)cc3s2)C1c1ccc(F)cc1 (stereo not drawn) [Compound 497]
2,219 to 220,CCOC(=O)CCC(=O)C1=C(O)C(=O)N(c2nc3ccc(F)cc3s2)C1c1ccc(Cl)cc1 (stereo not drawn) [Compound 498]
3,180 to 182,CCOC(=O)CCC(=O)C1=C(O)C(=O)N(c2nc3c(Cl)cccc3s2)C1c1ccccc1F (stereo not drawn) [Compound 499]
4,178 to 179,CCOC(=O)CCC(=O)C1=C(O)C(=O)N(c2nc3c(Cl)cccc3s2)C1c1ccc(F)cc1 (stereo not drawn) [Compound 500]
5,215 to 216,CCOC(=O)CCC(=O)C1=C(O)C(=O)N(c2nc3c(Cl)cccc3s2)C1c1ccc(Cl)cc1 (stereo not drawn) [Compound 501]
6,177 to 178,Cc1ccc(C(=O)C2=C(O)C(=O)N(Cc3ccco3)C2c2ccccc2F)o1 (stereo not drawn) [Compound 502]
7,213 to 214,Cc1ccc(C(=O)C2=C(O)C(=O)N(Cc3ccco3)C2c2ccc(F)cc2)o1 (stereo not drawn) [Compound 503]
8,193 to 194,Cc1ccc(C(=O)C2=C(O)C(=O)N(Cc3cccs3)C2c2ccccc2F)o1 (stereo not drawn) [Compound 504]
9,225 to 226,Cc1ccc(C(=O)C2=C(O)C(=O)N(Cc3cccs3)C2c2ccc(F)cc2)o1 (stereo not drawn) [Compound 505]
10,231 to 232,Cc1ccc(C(=O)C2=C(O)C(=O)N(c3ccc4ncsc4c3)C2c2ccccc2F)o1 (stereo not drawn) [Compound 564]
11,221 to 222,Cc1ccc(C(=O)C2=C(O)C(=O)N(c3ccc4ncsc4c3)C2c2ccc(F)cc2)o1 (stereo not drawn) [Compound 565]
12,91 to 93,Cc1ccc(C(=O)C2=C(O)C(=O)N(Cc3nc4ccccc4[nH]3)C2c2ccccc2F)o1 (stereo not drawn) [Compound 566]
13,96 to 100,Cc1ccc(C(=O)C2=C(O)C(=O)N(Cc3nc4ccccc4[nH]3)C2c2ccc(F)cc2)o1 (stereo not drawn) [Compound 567]
14,258 to 260,O=C(O)CCC(=O)C1=C(O)C(=O)N(c2nc3ccc(Cl)cc3s2)C1c1ccccc1F (stereo not drawn) [Compound 568]
15,262 to 263,O=C(O)CCC(=O)C1=C(O)C(=O)N(c2nc3ccc(Cl)cc3s2)C1c1ccc(F)cc1 (stereo not drawn) [Compound 569]
16,216 to 218,O=C(C1=C(O)C(=O)N(c2nc3c(Cl)cccc3s2)C1c1ccc(F)cc1)C1CC2C=CC1C2 (stereo not drawn) [Compound 570]
17,262 to 263,O=C(C1=C(O)C(=O)N(c2nc3ccc(Cl)cc3s2)C1c1ccccc1F)C1CCC1 (stereo not drawn) [Compound 571]
18,271 to 273,O=C(C1=C(O)C(=O)N(c2nc3ccc(Cl)cc3s2)C1c1ccc(F)cc1)C1CCC1 (stereo not drawn) [Compound 572]
19,220 to 221,O=C(C1=C(O)C(=O)N(c2nc3c(Cl)cccc3s2)C1c1ccccc1F)C1CCC1 (stereo not drawn) [Compound 573]
20,232 to 233,O=C(C1=C(O)C(=O)N(c2nc3c(Cl)cccc3s2)C1c1ccc(F)cc1)C1CCC1 (stereo not drawn) [Compound 574]
21,219 to 220,COCCOc1ccc(CCC(=O)C2=C(O)C(=O)N(c3nc4ccc(Cl)cc4s3)C2c2ccccc2F)cc1 (stereo not drawn) [Compound 575]
22,226 to 227,COCCOc1ccc(CCC(=O)C2=C(O)C(=O)N(c3nc4ccc(Cl)cc4s3)C2c2ccc(F)cc2)cc1 (stereo not drawn) [Compound 576]
23,179 to 180,COCCOc1ccc(CCC(=O)C2=C(O)C(=O)N(c3nc4c(Cl)cccc4s3)C2c2ccccc2F)cc1 (stereo not drawn) [Compound 577]
24,182 to 183,COCCOc1ccc(CCC(=O)C2=C(O)C(=O)N(c3nc4c(Cl)cccc4s3)C2c2ccc(F)cc2)cc1 (stereo not drawn) [Compound 578]
25,205 to 206,O=C(C1=C(O)C(=O)N(c2nc3ccc(Cl)cc3s2)C1c1ccccc1F)C1CC2C=CC1C2 (stereo not drawn) [Compound 579]
26,197 to 198,Cc1ccc(C(=O)C2=C(O)C(=O)N(CCc3c[nH]c4ccccc34)C2c2ccccc2F)o1 (stereo not drawn) [Compound 593]
27,157 to 158,Cc1ccc(C(=O)C2=C(O)C(=O)N(CCc3c[nH]c4ccccc34)C2c2ccc(F)cc2)o1 (stereo not drawn) [Compound 594]

# Reference: US20110130397A1, “PYRROLINONE COMPOUNDS AS INHIBITORS OF BACTERIAL PEPTIDYL TRNA HYDROLASE AND USES THEREOF” (priority 2006, published 2011)
